Entries after “also recorded” stand apart in the source; their conditions may differ.

Series [1] concerns liver from rat.
Description: In order to investigate the agents to be used in transplantation according to the present invention a liver from rat was tested in a perfusion solution in a heart/lung machine. In order to measure organ damage the amount of 8-OH-dG in the liver was analysed. As an inducer of 8-OH-dG dimethylsulphoxide (DMSO) was added to a perfusion solution.
Series [2] has as its system rat livers. The series can be described thus: Ischemia/reperfusion in rat liver perfusion system, removal of lactate, comparison with known protective compounds. To be noted: 5 mg added to the perfusate before ischemia; FIG. 3. The method, then: A third experiment was carried out, wherein rat livers were taken out and were subjected to perfusion in a heart/lung machine. The perfusion solution is blood with an implanted liver. When the system has reached equilibrium the perfusion flow is shut off and 10 to 20 minutes later the perfusion flow is turned on again, which is called reperfusion (ischemia). A known toxic effect of reperfusion (ischemia/infarction)(tissue damage due to oxidative stress) is the reduced capacity to remove lactate from the perfusate.

In series [3] the test system is rat livers. The series is described as follows: TPA toxicity in rat liver perfusion, lactate and bile flow. The method, then: (§1) A series of experiments were carried out with rat livers in a heart/lung machine (FIGS. 4 and 5).
(§2) Lactate was added to a control liver perfusion and the bile flow and the lactate level were measured as a function of time. Bile flow is the clinical parameter for liver function, the higher bile flow the better liver function. The results from controls are shown in the upper diagrams of FIGS. 4 and 5. A normal liver down-regulates the lactate very rapidly to in vivo levels (3-5 mM). The normal bile flow in controls is represented by the dotted line.
In the next experiment (FIG. 5) a very toxic compound, triphorbolester (TPA) was added to the perfusion fluid. TPA is an inducer of inflammation and a very potent tumour promoter.
Then the same experiment was repeated under the same conditions except that 2 mg B220 also was added to the perfusion. From said results it can be seen that when B220 is present in the system the toxic effects of TPA were prevented and the values of lactate and bile flow were restored (and even better as compared to the controls in FIG. 5, upper diagram). […] The mode of action resides in a blocking of hyperplasia/inflammation.

For series [4], the system named is rat liver. The series is described as follows: Donor pretreatment, liver stored 2 h at +30° C. then isolated perfusion, total bile flow. To be noted: single dose B220 i.p. to donor 24 h prior to surgery; liver 2 h at +30° C.; FIG. 6. Type of series: in vivo. The method, then: In a further experiment rat liver was tested in isolated perfusion where B220 was administered to the donor. The donors were administered a single dose of B220 24 h before the livers were surgically removed and kept at +30° C. for 2 h before set into perfusion (group 3). (There was a “short” storage (2 h) of rat liver at a high temperature (+30° C.) in order to simulate transplantation). The second group was not administered B220 and the first group was controls directly set into perfusion. […] “Transport” and reperfusion gives a massive oxidative stress which leads to tissue damage.
In FIG. 6 the total bile flow was an indicator of tissue damage induced by transplantation. The controls were directly “transplanted” to the perfusion system while the second group of livers was kept for 2 h at 30° C. before “transplantation”. The third group represents the 2 h at 30° C. treatment but with addition of B220 to the donors.

Series [5] concerns rat liver. The series is described as follows: Donor pretreatment, liver stored 24 h at +4° C. then isolated perfusion, bile flow and lactate. Type of series: in vivo. Conditions: pretreatment of B220 to the donor. The method, then:
The same experiment was repeated but instead the temperature applied during transport of human livers(+4° C.) was used. The livers were stored for 24 h before installation in the perfusion system. This should be compared to 12 h which is the maximum for human liver transplantation. […] The experiment was identical to what is shown in FIG. 6 except for time and temperature used.

Series [6] can be described thus: Long time in vivo experiments on tumour promoter effect of TPA.
The subject of series [7] is rat livers. The series can be described thus: Reperfusion (10 min shut-off) of rat liver in heart/lung machine, lactate and bile flow over time. To be noted: 2 mg B220 in the system, FIG. 4 lower diagram. The method, then: as §1, §2
In the next experiment a heart/lung machine was shut off for 10 minutes and then it was started again to induce oxidative stress (reperfusion). The amount of lactate, which is a measurement of tissue damage, was determined as a function of time and the bile flow as a function of time was also determined as an indicator of toxic effect. The results are shown in FIG. 4, middle diagram, indicating a high level of lactate (solid curve) and a reduced bile flow (dotted curve) after reperfusion. Both these effects are markers for tissue damage.
In the next experiment the same reperfusion experiment was carried out with B220 present in the system in an amount of 2 mg.

In series [8] the test system is rats. The series can be described thus: In vivo test of rats with 2,7-dNF, livers analysed for 8-OH-dG. Also on record: species or system rat. To be noted: oral in corn oil, B220 at −48 h, −24 h and +6 h relative to 2,7-dNF dose; FIG. 2. The method, then: In another experiment rats were tested in vivo and the livers analyzed for 8-OH-dG. In this experiment there were three test groups. One control group, one group to which 2,7-dinitrofluorene (2,7-dNF), which is a well-known carcinogen found in diesel exhaust and inducer of 8-OH-dG, was orally administered and one group to which both 2,7-dNF and a compound to be used as an agent according to the present invention (B220) were administered. B220 was administered at three time points in relation to the 2,7-dNF dose, viz. −48 h, −24 h and +6 h. All doses were administered orally with the substance in corn oil. Control only received carrier. Oxidation of DNA (oxidation of guanine, 8-OH-dG) was measured in the liver. 8-OH-dG is a promutagenic event correlated to several different types of diseases, for instance cancer, diabetes and infectious diseases.
The results of the experiment can be seen from the enclosed FIG. 2.

Series [9] is described as follows: Toxicity in vivo (general statement).
Where [10] appears, read: TPA alone added to the perfusion fluid, FIG. 5 middle diagram.
Where [11] appears, read: 2 mg B220 added together with TPA, FIG. 5 lower diagram.

With `C[S+](C)[O-]` [DMSO, dimethylsulphoxide, reference compound], the “8-OH-dG in the liver” value in series [1] was “significant increase of 8-OH-dG”.

Take `CC(=O)Oc1ccccc1C(=O)O` [ASA, acetyl salicylic acid]: the “reduction of lactate in perfusate after ischemia (protection)” value in series [2] was “did not give any protective effects”.

In the case of `CCCCCCCCCCCCCC(=O)O[C@@H]1[C@@H](C)[C@@]2(O)[C@@H](C=C(CO)C[C@]3(O)C(=O)C(C)=C[C@@H]23)[C@@H]2C(C)(C)[C@]12OC(C)=O` [TPA, triphorbolester, reference compound], in series [3] (setting [10]), the “capacity to produce bile” value is given as “very restricted capacity to produce bile” and the “capacity to reduce lactate” value is reported as “very limited capacity to reduce lactate”.

Take `Cc1cc2nc3c4ccccc4n(CCN(C)C)c3nc2cc1C` [B220]: the “reduction of lactate in perfusate after ischemia (protection)” value in series [2] is given as “significant reduction of lactate; also recorded: statistically significant protection”. Further, the “total bile flow during the perfusion” value in series [4] was “the toxic effects are eliminated; also recorded: completely restored the bile flow value to that of the control samples”. Moreover, the bile flow result in [5] (FIG. 7) was “the bile flow was restored”. Also, the lactate levels result in [5] (FIG. 8) is given as “same protective effect on lactate levels”. For the same compound, in series [6], the “tumour promoter effect of TPA” value is listed as “can stop the very potent tumour promoter effect of TPA”. Further, in series [3] (setting [11]), the “bile flow with TPA in perfusion” value is recorded as “restored” and the “lactate with TPA in perfusion” value was “restored”. Also, in series [7], the “bile flow as a function of time after reperfusion” value is recorded as “rapidly accommodate to normal values; also recorded: better than in the controls” and the “lactate amount as a function of time after reperfusion” value is “rapidly accommodate to normal values; also recorded: better than in the controls”. Moreover, in series [8], the “8-OH-dG in the liver (oxidation of DNA)” value is given as “protects against 2,7-dNF-induced formation of 8-OH-dG; also recorded: reduces 8-OH-dG to below the control values”. Besides, the toxicity result in series [9] is listed as “practically non-toxic”.
